Assay results taken from a melting point compilation (Tetko et al.; mined from patent text by program, amines drawn as free bases though some values may be those of a salt).

SMILES | melting point
O=C1NC(=O)C(c2ccco2)N1 (configuration not stated) | 145 to 146 °C
Cc1c(C#N)c(-c2ccc(C#N)cc2)c(C)n1Cc1cnc(Cl)c(CO)c1 | 147 to 148 °C
Cc1cccc(OCC2=NCCN2S(C)(=O)=O)c1C | 142 to 143 °C
CCN(CC)c1ccc(-c2cc(-c3ccc(C(=O)O)cc3)ccc2O)cc1C(C)(C)C | 190 °C
CONC(=N)c1ccc(-c2ccc(-c3ccc(C(=N)NOC)nc3)o2)cc1 | 235 to 237 °C
COCC(COC)N(C)Cc1ccc(NC(=O)C2=Cc3cc(-c4ccc(C)cc4)ccc3OCC2)cc1 | 128 to 132 °C
CCCCc1nc(Cl)c(CO)n1Cc1ccccc1Cl | 134 to 135 °C
O=C(O)CCCCCNC(=O)C(F)(F)F | 90 to 91 °C
CCCCCCCCOC(=O)Nc1c2c(nc3ccccc13)CCCC2 | 96 to 99 °C
Fc1c(F)c(C(F)(F)F)c(F)c(F)c1Nc1ccc(-c2ccc(Nc3c(F)c(F)c(C(F)(F)F)c(F)c3F)cc2)cc1 | 179 to 180 °C
c1ccc(Nc2nc(-c3cccs3)nc3ccccc23)cc1 | 137 to 139 °C
O=C(O)c1cc(Cl)c(C(=O)O)c([N+](=O)[O-])c1Cl | 287 to 288 °C
COC(=O)c1cccnc1C(=O)c1ccc(F)cc1 | 95 to 96.5 °C
COc1ccc(C)nc1Cn1c(NCCCN2CCOCC2)nc2ccc(CNc3cc(C)ccc3CCCO)cc21 | 132 °C
CCOc1ccc(-c2nc(-c3cccc(CO)n3)cs2)cc1OCC | 109 to 113 °C
O=C(NCCC12CC3CC(CC(C3)C1)C2)c1ccccc1Cl | 125 to 127 °C
Cc1cc(-c2ccc(C(F)(F)F)cc2)cn2c(-c3nc(-c4ccnc(N)c4)no3)cnc12 | 264 °C
CCN(CC)c1ccc2c(c1)Cc1c-2[nH]c2ccccc12 | 204 to 206 °C
CCN(CC)S(=O)(=O)c1cc(Br)c(N)c(Br)c1 | 186 to 187 °C
Cc1cccc(-c2coc3cc(O)c(O)cc3c2=O)c1 | 258 °C
N#Cc1ccc(N(Cc2ccc(O)c(Br)c2)n2cnnc2)cc1-c1ccccc1 | 218 to 220 °C
Cc1noc(C)c1-c1ccc(F)cc1OC1SCC(O)C(O)C1O (configuration not stated) | 192 °C
COC(=O)c1cc(S(=O)(=O)Cl)cc(C(=O)OC)c1[N+](=O)[O-] | 124 to 125 °C
Cc1cc(C)c(C(=O)Nc2ccccc2S(C)=O)c(I)c1 (configuration not stated) | 114 °C
CCCCOC(=O)Nc1ccnc(-c2ccncc2)n1 | 180 to 182 °C
Cn1cc(-c2cc(Cl)cc(Cl)c2)c(=O)c(-c2cc(Cl)cc(Cl)c2)c1 | 275 to 278 °C

SMILES | melting point
CCOC(=O)/C(=C/c1conc1-c1ccc(OC)cc1OCc1ccccc1C(=O)OC)Cc1cc2c(cc1OC)OCO2 | 135 to 137 °C
COc1cc(OC)c2c(=O)c3oc4ccccc4c3oc2c1 | 261 to 263 °C
CCOC(=O)C(C)(C)c1ccc(-n2c(-c3cc(-c4cnc5ccccc5c4)ccn3)cn(C)c2=O)cc1 | 158 °C
COc1cc(-c2cc(O)c(SCCc3ccccc3)c(=O)o2)ccc1OCc1ccccc1 | 114 to 115 °C
Cc1cc(Cl)c(C)cc1O | 74 to 75 °C
COC(=O)CCSc1ncccc1C#N | 101 to 102 °C
CCCCCCNC(=O)NCCCCl | 48 to 50 °C
COc1nc2ccccc2nc1NC(=O)N1CCN(c2cc([N+](=O)[O-])cc([N+](=O)[O-])c2)CC1 | 216 to 218 °C
O=C1NC(=O)C(Cc2ccc(OCCN3c4ccccc4Sc4ccccc43)cc2)S1 (configuration not stated) | 68 to 70 °C
NC(=O)c1cccc(OCc2cccc(Br)c2)c1 | 129 to 131 °C
CCCc1c(OCCCOc2ccc(C(=O)CCC(=O)O)cc2C)ccc(C(C)=O)c1O | 179 to 180 °C
CC(=O)ON1CC(NC(=O)OCc2ccccc2)C1=O (configuration not stated) | 130 to 131 °C
N#Cc1cc(O)c(O)c([N+](=O)[O-])c1 | 175 to 178 °C
Cc1oc(-c2ccccc2)nc1COc1ccc(C=CC=O)cc1 | 114 to 115 °C
Cc1ccc(N(C(=O)CCl)c2c(Cl)cc(C)cc2Cl)cc1 | 140 to 141 °C
O=C(NC[C@@H](C(=O)NO)N1CCOCC1)c1ccc(OCc2ccnc(-c3cccc(C(F)(F)F)c3)c2)cc1 | 151 °C
Cc1c(O)ccc2cc(Br)ccc12 | 127 to 129 °C
CCC(=O)Oc1ccc(C(=O)c2ccc(Sc3ccccc3)cc2)c(O)c1 | 88 to 90 °C
CCCC(Oc1cncc(Cl)c1)C(=O)O (configuration not stated) | 89 to 91 °C
NS(=O)(=O)c1nn(-c2ccccn2)cc1Br | 145 to 146 °C
CCOC(=O)Cc1nn(C(c2ccccn2)c2ncno2)c(=O)c2ccccc12 (configuration not stated) | 118 to 128 °C
COc1ccc([N+](=O)[O-])c(C=CN2CCCC2)c1Cl | 89 to 92 °C
N#Cc1c(N2CCc3ccccc3CC2)nc(CSc2ccccc2)[nH]c1=O | 189 to 194 °C
COc1cc(Nc2nc3cccc(-c4ccc(NS(C)(=O)=O)cc4)c3o2)cc(OC)c1OC | 222 to 225 °C
Cc1ccc2[nH]c(C)c(C(=O)c3ccc(Cl)c(S(N)(=O)=O)c3)c2c1 | 248 to 250 °C
S=C=Nc1ccc(Sc2nc3ccccc3s2)cc1 | 84.5 to 86 °C

SMILES | melting point
Cc1ccc(NC(=O)C(C)(C)C)c(-c2ccnc(OCC(F)(F)F)n2)c1 | 126 to 128 °C
CCCc1nc2c(N)nc3c(c2n1CCCC(=O)N1CCOCC1)CCCC3 | 181 to 183 °C
FC(F)(F)c1cccc(N2CCN(Cc3ccc4c(c3)NCCN4)CC2)c1 | 88 to 91 °C
Nc1nc(N)nc(-c2ccc(S(=O)(=O)N3CCCCC3)cc2)n1 | > 260 °C
CCCCc1nc(C(O)CCC)c(C(N)=O)n1Cc1ccc(-c2ccccc2C(=O)O)cc1 (configuration not stated) | > 110 °C
c1cc2c3c(c1)[C@@H]1CCC[C@@H]1N3CCNC2 | 57 to 59 °C
COc1ccc2c(C(=O)c3ccc(OC4CCCCC4N(C)C)cc3)c(-c3ccc(OCCN4CCCC4)cc3)sc2c1 (configuration not stated) | 61 to 64 °C
COc1cccc(-c2noc3cc(F)ccc23)c1 | 68 to 69 °C
COc1c(C(C)(C)C)cc(C(N)=O)cc1C(C)(C)C | 239 to 243 °C
CCCN1C(=O)N2C[C@@H](Cc3ccccc3)N=C2c2c1nc(N1CCCC1)n2Cc1ccccc1 | 124 to 125 °C
CC(C)(CO)CCCCCC(O)CCCCC(C)(C)CO (configuration not stated) | 79 to 80 °C
Nc1nc2sc(CCC3CCCCC3)nn2c(=O)c1[N+](=O)[O-] | 249 to 251 °C
O=C(Nc1ccccc1)NN1CCCOC1=O | 204 to 207 °C
NC(=O)c1c(N)cccc1N1CCCC1 | 144 to 146 °C
COc1c(C)cc(C)cc1CNC(=O)CCl | 124 °C
CC1(C)CC(N2CCN(c3ccccc3)C2=O)c2cc(C#N)ccc2O1 (configuration not stated) | 166 to 168 °C
CCn1nc(O)nc1SC | 83 to 87 °C
NS(=O)(=O)C1(C2C(Cl)=CC=CN2C(F)(F)F)C=CC(Cl)=CC1Cl (configuration not stated) | 125 to 126 °C
O=C(O)c1ccc(C2=NOC(c3cc(Cl)cc(Cl)c3)(C(F)(F)F)C2)cc1F (configuration not stated) | 172 to 174 °C
CCCc1cc(CCC)c2oc(Cc3ccc(OC)cc3)c(C)c2c1O | 70 to 72 °C
COc1cc(I)ccc1C(=O)Nc1ccc(OC)c(N2CCN(C)CC2)c1 | 168 to 170 °C
COc1ccc(CNc2nc(SC)ncc2C(=O)OCc2ccccn2)cc1Cl | 117 to 118 °C
NS(=O)(=O)c1cc(Br)ccc1F | 153 to 154 °C
CCC(C)(C)c1nc(C(C)C)[nH]c1C(C)(C)CC | 28 °C
CCc1cc(-c2nnc3c4ccccc4c(OCc4ncn(C)n4)nn23)no1 | 236 to 238 °C
CCOC(=O)CC(=O)c1cc(F)c(F)c(Cl)c1Cl | 52 to 53 °C

SMILES | melting point
CCCOCCOc1ccc(-c2ccc3c(c2)C=C(C(=O)Nc2ccc(CN(C)C4CCOCC4)cc2)CCS3(=O)=O)c(C)c1C | 158 to 159 °C
COc1cc(OC)c(N=C=O)c(OC)c1 | 67 to 70 °C
CCC1=NC(NC(=O)Nc2cccc(C)c2)C(=O)N(CC(=O)N2CC3CCC(CC3)C2)c2c(C)cccc21 (configuration not stated) | 130 to 133 °C
CC(=O)OC1CC2=CC=C3C4CCC(C(C)CCCC(C)C)C4(C)CCC3C2(C)C(OC(C)=O)C1 (configuration not stated) | 113 to 114 °C
O=C(Nc1cccc(Cl)c1)ONC1=Nc2ccc([N+](=O)[O-])cc2C(c2ccccc2)=NC1 | 123 to 125 °C
CC(C)(C)C(O)CN1CCC(CCC(=O)c2cc(Cl)c(N)[nH]c2=O)CC1 (configuration not stated) | 211 °C
COC(=O)c1ccc(SC)nc1OC | 71 to 75 °C
Cn1nc(-c2cc(F)c([N+](=O)[O-])cc2F)c(Br)c1C(F)(F)F | 45.5 °C
COC(=O)c1ncoc1C | 46.5 to 47 °C
CS(=O)(=O)c1cc(C(=O)O)cc(N=Cc2ccco2)c1Cl | 221 °C
O=[N+]([O-])c1cc(-c2csc(-c3cccnc3)n2)cc(O)c1O | 279 to 281 °C
CC(C)c1ccc(N(Cc2ccc(N(C)C)cc2)C(=O)C2CCCc3cc(OCCN(C)C)ccc32)cc1 (configuration not stated) | 133 °C
NC(=O)C1C(=O)NC(=O)C(C(N)=O)C12CCCCC2 (configuration not stated) | > 300 °C
O=c1c(-c2ccccc2)ccc2n1CCc1ccccc1-2 | 140 °C
COc1ccc(OC)c(COc2ccc(NC=O)c(C(N)=O)c2)c1 | 135 to 138 °C
CCCOc1nn(-c2ccc(C(F)(F)F)cn2)cc1CCCOc1ccc(CCC(=O)O)c(OCC)c1 | 112 to 113 °C
Cc1oc(C2(C)CCCCC2)nc1C(=O)O | 128 to 129 °C
COC(=O)CC(CCc1ccc(C)cc1)NC(C)=O (configuration not stated) | 50 to 51 °C
N#Cc1c(Cl)ccc2ccccc12 | 82 to 83 °C
CCCCCC(=O)N1c2cscc2C(=O)N(C)c2ccccc21 | 76 to 77 °C
Oc1ncnc(C(F)F)c1Cl | 148 to 150 °C
CC(=O)c1ccc(-c2nn(C(C)c3oc4ccccc4c(=O)c3-c3cccc(F)c3)c3ncnc(N)c23)cc1 (configuration not stated) | 218 to 221 °C
COc1cc(COc2nn(-c3ccccc3)cc2CCO)ccc1OCc1nc(-c2ccco2)oc1C | 123 to 124 °C
CCC1(Cl)Cc2cc(OC(C)(C)C(=O)O)c(Cl)c(Cl)c2C1=O (configuration not stated) | 164 to 165 °C
